According to patent US20020187484A1, “Molecular break lights probes for detecting nucleotide cleavage” (priority 2000, published 2002):
Like-named read-outs stand apart in the source and are kept apart here. Marks after values point to notes of the source that are not given here.

B1: BamHI: restriction endonuclease, commercially available (protein, UniProt P23940 1-213, looked up)
Type II restriction enzyme …: MEVEKEFITDEAKELLSKDKLIQQAYNEVKTSICSPIWPATSKTFTINNTEKNCNGVVPIKELCYTLLEDTYNWYREKPLDILKLEKKKGGPIDVYKEFIENSELKRVGMEFETGNISSAHRSMNKLLLGLKHGEIDLAIILMPIKQLAYYLTDRVTNFEELEPYFELTEGQPFIFIGFNAEAYNSNVPLIPKGSDGMSKRSIKKWKDKVENK

Experiments:
break light A [1] = experiment: Molecular break light assay: cleavage of break light A by enediynes and Fe^+2-dependent agents; type: biochemical; details: for agent concentration at maximum turnover: [A] = 32 nM; for Vmax: 37° C.; for effect of ascorbate on DNA-cleavage: addition of ascorbate; for agent concentration at maximum turnover (Vapp/[cleavage agent]): [molecular break light A] = 3.2 nM
Experimental: Samples were analyzed with a FluoroMax-2 spectrofluorometer equipped with DataMax for Windows (Instruments S. A., Inc.; Edison, N.J.) and the temperature controlled (30° C., unless otherwise noted) by a Haake Circulator DC10. All samples were filtered prior to analysis and analyzed via a timebase scan (λex=485 nm, λEm=517 nm) in a Suprasil quartz cuvette (10 mm path) fitted with a magnetic stirring bar in a total volume of 2 mL. […] Total cleavage of the labeled oligonucleotide, confirmed by polyacrylamide gel electrophoresis (PAGE), was defined as the maximum fluorescence emission possible under saturated cleaving conditions. Emission units were converted to the amount of labeled oligonucleotide used within a procedure, thereby equating labeled oligonucleotide degradation as a function of the emission of fluorescence.
Enediyne antibiotics calicheamicin and esperamicin at varying concentrations (0.31, 0.78, 1.6, 3.2, 15.9, and 31.7 nM) were incubated in 40 mM Tris-HCl (pH 7.5) with 3.2 nM of the calicheamicin-specific labeled molecular break light oligonucleotide (A). DNA cleavage was initiated with the addition of 1 μL 100 mM dithiothreitol (“DTT”) to produce a final concentration of 50 μM DTT, and the reaction was monitored over 10 minutes via spectrofluorometry.
Pseudo-first order kinetic parameters were utilized to determine the initial velocities at each given enediyne concentration. Specifically, graphical representation of the data was based upon equation 2 where [A]t is the concentration of cleaved oligonucleotide at a given time (t) and [A]0 is the initial concentration of oligonucleotide in the assay. Least squares analysis gave the slope (k), or rate, which was converted to V by the relationship in equation 3. The maximum velocity achieved (Vmax) was then selected from the range of concentrations examined.
ln[A]t=−kt+ln[A]0 [Equation 2]
Bleomycin, an Fe^+2-dependent nucleic acid cleavage agent, is a natural metabolite from Streptomyces verticillus. Blenoxane (a mixture containing approximately 70% bleomycin A2 and 30% bleomycin B2) was dissolved in water & optically standardized (ε291=1.7×10^4M^−1 cm^−1). Bleomycin mediated cleavage was adapted from procedures outlined by Giloni et al. J. Biol. Chem. 256: 8608-8615 (1981). Several different concentrations of bleomycin (200 nM, 100 nM, 50 nM, 25 nM, 12.5 nM, 5 nM, and 2.5 nM) were incubated in 50 mM sodium phosphate, 2.5 mM ascorbate, at pH 7.5 and 37° C. with 3.2 nM of the molecular break light A.
The reaction was initiated by the addition of 65 mM Fe(II) and monitored over 5 minutes. This protocol was repeated with the addition of 5 mM sodium ascorbate to the above conditions. Pseudo-first order kinetic parameters were utilized to determine the initial velocities at each given bleomycin concentration as previously described.
In a first assay, 3.2 nM break light A was incubated in 40 mM Tris HCl and 2.5 mM ascorbate at 37° C. and pH 7.5. Cleavage was initiated by addition of MPE/Fe(II) in a 1.2:1 molar ratio to various concentrations. Final Fe(II) concentrations were 8 μM, 4 μM, 2 μM, 1 μM, 500 nM, 250 nM, and 125 nM.
In a second assay, 32 nM molecular break light A was incubated in 40 mM Tris and 2.5 mM sodium ascorbate at pH 7.5 and 37° C. Cleavage was initiated by addition of MPE/Fe(II) in a 1.2:1 molar ratio to various concentrations. Final Fe(II) concentrations were 50 nM, 125 nM, 250 nM, 500 nM, 1 μM, and 2 μM.
In a third assay, 32 nM break light A (calicheamicin-specific molecular break light oligonucleotide) was incubated in 40 mM Tris and 2.5 mM sodium ascorbate at pH 7.5 and 37° C.

[2] = system: dual fluorophoric-labeled dsDNA; details: 0.8 nM dual fluorophoric-labeled dsDNA, FCS spectrometer; cited from earlier work
break light A [3] = experiment: BamHI / DNaseI digestion of break light A (proof of principle); type: biochemical; details: 3.2 nM break light A, 37° C.; 100 U BamHI or 10 U DNaseI
Experimental: (§1) The cleavage of molecular break light probes A and B by BamHI was investigated. In a first assay, break light A and break light B were each incubated with 100 U BamHI. As a control, break light B was also incubated without enzyme. The incubations occurred at 37° C. in a solution containing 10 mM TrisHCl, 50 mM NaCl, 10 mM MgCl2, and 1 mM DTT at pH 7.9.
(§2) In a second assay, break light A and break light B were each incubated with 10 U DnaseI. As a control, break light A was also incubated without enzyme. The incubations occurred at 37° C. in a solution containing 40 mM Tris HCl, 10 mM MgSO4, and 1 mM CaCl2 at pH 8.0.

[4] = system: oligonucleotide substrate; details: previously reported values for BamHI; cited from earlier work
molecular break light B = experiment: BamHI steady state kinetics and sensitivity limits with break light B; type: biochemical
Experimental: Samples were analyzed with a FluoroMax-2 spectrofluorometer equipped with DataMax for Windows (Instruments S. A., Inc.; Edison, N.J.) and the temperature controlled (30° C., unless otherwise noted) by a Haake Circulator DC10. All samples were filtered prior to analysis and analyzed via a timebase scan (λex=485 nm, λEm=517 nm) in a Suprasil quartz cuvette (10 mm path) fitted with a magnetic stirring bar in a total volume of 2 mL. Reactions were equilibrated to the incubation temperature before initiation of DNA cleavage as was evident by a steady background emission over 10 min. Total cleavage of the labeled oligonucleotide, confirmed by polyacrylamide gel electrophoresis (PAGE), was defined as the maximum fluorescence emission possible under saturated cleaving conditions. Emission units were converted to the amount of labeled oligonucleotide used within a procedure, thereby equating labeled oligonucleotide degradation as a function of the emission of fluorescence.
Determination of BamHI (10 units/μL) specific cleavage was performed in 6 mM TrisHCl, 100 mM NaCl, 6 mM MgCl2, and 1 mM DTT, at 37° C. and pH 7.5 with 3.2 nM of molecular break light B (FIG. 2B) and varying amounts of BamHI-specific oligonucleotide lacking the fluorophore and quenching moieties. Total substrate concentrations (including break light) were as follows: 389 nM, 196 nM, 81 nM, 42 nM, 11 nM, 7.5 nM, and 3.4 nM.
The reaction was initiated with 10 U BamHI enzyme and monitored via spectrofluorometry over a time course of fifteen minutes. The initial rate of DNA cleavage was determined from data within the first 100 seconds of initiation which was then adjusted according to equation 1. These adjusted values were utilized for the reciprocal plot from which the Michaelis-Menten kinetic parameters were determined.
Vact=Vobs([Sact]/[S*]) [Equation 1]
The steady-state kinetic parameters for a commercially available BamHI were determined. The dependence of BamHI hydrolysis on substrate concentration was investigated using mixtures of a fixed amount of molecular break light B and varying amounts of an analogous non-labeled oligonucleotide (lacking both FAM and DABCYL) over a wide substrate concentration range. The apparent competitive inhibition observed due to phenomenon of “carrier dilution” was corrected to give the appropriate kinetic parameters. See, e.g., Roy, et al. (1994).
The observed velocity (Vapp) is related to the actual velocity (Vact) by equation [I] where [Sact] and [S*] are the total substrate concentration and B concentration, respectively. The reciprocal plot after correction for this “carrier dilution” phenomenon is illustrated in FIG. 4b.
A recent fluorescence correlation spectroscopy (FCS) assay for the restriction endonuclease EcoRI using 0.8 nM of dual fluorophoric-labeled dsDNA and a highly specialized FCS spectrometer, reported a detection limit of 1.6 pM EcoRI. Kettling, U., et al. (1998). Under the conditions containing even slightly less oligonucleotide (0.68 nM molecular break light), cleavage was easily detectable to 3.7 pM BamHI. […] This assay was performed undert the same conditions as the other assays in this Example.

break light B = experiment: BamHI / DNaseI digestion of break light B (proof of principle); type: biochemical
Experimental: as §1, §2

[5] = [DNA]total = 3.2 nM, MPE as common agent

Molecule	agent concentration at maximum turnover (break light A [1])	Comparison to EDTA (fold enhancement over EDTA turnover) (break light A [1]; [DNA]total = 32 nM)	Turnover (Vmax/[Agent]) (break light A [1]; [DNA]total = 32 nM)	Vmax (break light A [1]; [DNA]total = 32 nM)	effect of ascorbate on DNA-cleavage (break light A [1])	Turnover (Vmax/[Agent]) (break light A [1]; [DNA]total = 3.2 nM)	Vmax (break light A [1]; [DNA]total = 3.2 nM)	Comparison to EDTA (fold enhancement over EDTA turnover) (break light A [1]; [5])	agent concentration at maximum turnover (Vapp/[cleavage agent]) (break light A [1])	also measured
O=C([O-])CN(CCN(CC(=O)[O-])CC(=O)[O-])CC(=O)[O-].[Fe+2].[H+].[H+] [EDTA, Fe^+2-EDTA]	~1.3 µM	1.0 fold	1.5e-06 s⁻¹	0.002 ± 0.001^e nM sec^−1	critical for efficient DNA-cleavage					
EcoRI: restriction endonuclease										detection limit [2]: 1.6 pM
bleomycin					did not affect	0.001 s⁻¹	0.009 ± 0.001^d nM sec^−1	6.8 × 10^4 fold	2.5 nM	detection of agent by the assay (sensitivity range) (break light A [1]; 3.2 nM break light A, conditions described): nM range; additional increase of cleavage efficiency over MPE (break light A [1]; from Table 1): 10 fold
esperamicin A1						0.009 s⁻¹	0.007 ± 0.001^d nM sec^−1	6.1 × 10^5 fold		maximum fluorescence upon cleavage, compared with DNaseI (break light A [1]; 3.2 nM break light A, excess DTT): identical to that observed with DNaseI; enhancement of cleavage efficiency over bleomycin (break light A [1]; from Table 1): ~10 fold
methidiumpropyl-Fe^+2-EDTA [Methidiumpropyl-EDTA]	~0.05 µM	1.6 × 10^3 fold	0.002 s⁻¹	0.118 ± 0.004^e nM sec^−1	critical for efficient DNA-cleavage	2.4e-05 s⁻¹	0.003 ± 0.001^d nM sec^−1	1.6 × 10^3 fold	125 nM	enhancement of cleavage efficiency in comparison to Fe^+2-EDTA (break light A [1]; from Table 1): ~10^3 fold
B1										change in fluorescence intensity over time (break light A [3]): no change; Km [4]: 0.4 nM; V max, previously reported [4]: 0.009 nM/s; detection limit (molecular break light B): 0.12 pM; detection limit (cleavage easily detectable to) (molecular break light B; 0.68 nM molecular break light): 3.7 pM; Vmax (molecular break light B; 10 U BamHI, 3.2 nM break light B plus non-labeled oligonucleotide, 37° C., pH 7.5): 0.024 ± 0.001 nM/s; Km (molecular break light B; 10 U BamHI, break light B plus non-labeled oligonucleotide, 37° C., pH 7.5): 8.9 ± 0.5 nM; Comparison to EDTA (fold enhancement over EDTA turnover) (molecular break light B; BamHI, break light B): 4.8 × 10^5 fold; Turnover (Vmax/[Agent]; also known as kcat) (molecular break light B; BamHI, break light B): 0.007^c sec^−1; detection limit (molecular break light B; molecular break light concentration 34 nM): 0.12 pM; change in fluorescence intensity over time (break light B; 3.2 nM break light B, 37° C., 100 U BamHI or 10 U DNaseI): increase of fluorescence; fluorescence maximum intensity upon complete cleavage, relative to DNaseI (break light B; same concentration of molecular break light): 75%
